Literature values in US20070202050A1, “Pharmaceutical Formulations” (priority 2006, published 2007).

What was measured:
[1] = topically active steroid
[2] = system: symptoms associated with chronic nasal congestion
[3] = system: secretions of natural tear components; details: preclinical testing

C[C@@H]1C[C@H]2[C@@H]3CCC4=CC(=O)C=C[C@]4(C)[C@@]3(Cl)[C@@H](O)C[C@]2(C)[C@@]1(OC(=O)c1ccco1)C(=O)CCl [Mometasone Furoate]
bioavailability [1]: not readily bioavailable

Cc1cc(CCCOc2c(C)cc(-c3noc(C(F)(F)F)n3)cc2C)on1 [Pleconaril, 1,2,4-oxadiazole3-[3,5-Dimethyl-4-[3-(3-methyl-5-isoxazolyl)propoxy]phenyl]-5-(trifluoremethyl)]
activity against rhinoviruses (rhinoviruses): active against rhinoviruses | solubility in water / aqueous solvents: insoluble | solubility in liquids (for example corn oil and ethanol): soluble only in liquids of low polarity

Oc1cccc(Nc2ncc(F)c(Nc3cccc(O)c3)n2)c1 [R112]
absolute difference over placebo [2]: 9% | improvement from baseline measurements (prior to drug initiation) [2]: up to 38% | relative improvement over placebo [2]: greater than 20%

O=c1ccn([C@@H]2O[C@H](COP(=O)(O)OP(=O)(O)OP(=O)(O)OP(=O)(O)OC[C@H]3O[C@@H](n4ccc(=O)[nH]c4=O)[C@H](O)[C@@H]3O)[C@@H](O)[C@H]2O)c(=O)[nH]1 [diquafosol]
effect on secretions of natural tear components [3]: increased the secretions of natural tear components
